Measured values reported in patent publication US9695155B2, “Herbicidal substituted pyrimidinyloxy benzene compounds” (E. I. DU PONT DE NEMOURS AND COMPANY, priority 2013, dated 2017).

What was measured:
lambsquarters = assay: Test D postemergence; assay type: in vivo, Chenopodium album; details: Chenopodium album, post-emergence, scale 0 to 100 (0 no effect, 100 complete control), read-out: Plant response rating, Lambsquarters
From the text: (§1) Seeds of plant species selected from bluegrass (annual bluegrass, Poa annua), blackgrass (Alopecurus myosuroides), canarygrass (littleseed canarygrass, Phalaris minor), chickweed (common chickweed, Stellaria media), galium (catchweed bedstraw, Galium aparine), bromegrass, downy (downy bromegrass, Bromus tectorum), field poppy (Papaver rhoeas), field violet (Viola arvensis), green foxtail (Setaria viridis), deadnettle (henbit deadnettle, Lamium amplexicaule), Italian ryegrass (Lolium multiflorum), kochia (Kochia scoparia), lambsquarters (Chenopodium album), oilseed rape (Brassica napus), pigweed (Amaranthus retroflexus), chamomile (scentless chamomile, Matricaria inodora), Russian thistle (Salsola kali), speedwell (bird's-eye speedwell, Veronica persica), spring barley (Hordeum vulgare), spring wheat (Triticum aestivum), wild buckwheat (Polygonum convolvulus), wild mustard (Sinapis arvensis), wild oat (Avena fatua), wild radish (Raphanus raphanistrum), windgrass (Apera spica-venti), winter barley (Hordeum vulgare), and winter wheat (Triticum aestivum) were planted into a silt loam soil and treated preemergence with test chemicals formulated in a non-phytotoxic solvent mixture which included a surfactant.
(§2) At the same time, these species were planted in pots containing Redi-Earth® planting medium (Scotts Company, 14111 Scottslawn Road, Marysville, Ohio 43041) comprising spaghnum peat moss, vermiculite, wetting agent and starter nutrients and treated with postemergence applications of the test chemicals formulated in the same manner. Plants ranged in height from 2 to 18 cm (1- to 4-leaf stage). Treated plants and controls were maintained in a controlled growth environment for 7 to 21 days after which time all species were compared to controls and visually evaluated. Plant response ratings, summarized in Table D, are based on a scale of 0 to 100 where 0 is no effect and 100 is complete control. A dash (-) response means no test result.

wild mustard = assay: Test D preemergence; assay type: in vivo, Sinapis arvensis; details: Brassica, pre-emergence, scale 0-100, read-out: Plant response rating, Mustard, Wild
From the text: as §1, §2

deadnettle = assay: Test D preemergence; assay type: in vivo, Lamium amplexicaule; details: Lamium amplexicaule, pre-emergence, scale 0-100, read-out: Plant response rating, Deadnettle
From the text: as §1, §2

chickweed = assay: Test D postemergence; assay type: in vivo, Stellaria media; details: Stellaria media, post-emergence, scale 0 to 100 (0 no effect, 100 complete control), read-out: Plant response rating, Chickweed
From the text: as §1, §2

wild buckwheat = assay: Test D postemergence; assay type: in vivo, Polygonum convolvulus; details: Fallopia convolvulus, post-emergence, Postemergence, scale 0 to 100 (0 no effect, 100 complete control), read-out: Plant response rating, Buckwheat, Wild
From the text: as §1, §2

pigweed = assay: Test D postemergence; assay type: in vivo, Amaranthus retroflexus; details: Amaranthus retroflexus, post-emergence, scale 0 to 100 (0 no effect, 100 complete control), read-out: Plant response rating, Pigweed
From the text: as §1, §2

field poppy = assay: Test D postemergence; assay type: in vivo, Papaver rhoeas; details: Papaver rhoeas, post-emergence, scale 0 to 100 (0 no effect, 100 complete control), read-out: Plant response rating, Field Poppy
From the text: as §1, §2

winter wheat = assay: Test D preemergence; assay type: in vivo, Triticum aestivum; details: Triticum aestivum, pre-emergence
From the text: as §1, §2

spring wheat = assay: Test D preemergence; assay type: in vivo, Triticum aestivum; details: Triticum aestivum, pre-emergence
From the text: as §1, §2

windgrass = assay: Test D postemergence; assay type: in vivo, Apera spica-venti; details: Apera spica-venti, post-emergence, scale 0 to 100 (0 no effect, 100 complete control), read-out: Plant response rating, Windgrass
From the text: as §1, §2

bluegrass = assay: Test D preemergence; assay type: in vivo, Poa annua; details: Poa annua, pre-emergence, scale 0-100, read-out: Plant response rating, Bluegrass
From the text: as §1, §2

N#Cc1cccc(Oc2ncc(Cl)cn2)c1-n1cc(Br)cn1 [Compound 52, 2-(4-bromo-1H-pyrazol-1-yl)-3-[(5-chloro-2-pyrimidinyl)oxy]benzonitrile]
pest or weed control at 31 g/ha (lambsquarters; 31 g ai/ha): 80%
pest or weed control at 62 g/ha (lambsquarters; 62 g ai/ha): 75%
pest or weed control at 125 g/ha (lambsquarters; 125 g ai/ha): 75%
pest or weed control at 250 g/ha (lambsquarters; 250 g ai/ha): 95%
pest or weed control at 31 g/ha (wild mustard; 31 g ai/ha): 20%
pest or weed control at 62 g/ha (wild mustard; 62 g ai/ha): 55%
pest or weed control at 125 g/ha (wild mustard; 125 g ai/ha): 90%
pest or weed control at 250 g/ha (wild mustard; 250 g ai/ha): 100%
pest or weed control at 31 g/ha (deadnettle; 31 g ai/ha): 70%
pest or weed control at 62 g/ha (deadnettle; 62 g ai/ha): 75%
pest or weed control at 125 g/ha (deadnettle; 125 g ai/ha): 100%
pest or weed control at 250 g/ha (deadnettle; 250 g ai/ha): 100%
pest or weed control at 31 g/ha (chickweed; 31 g ai/ha): 60%
pest or weed control at 62 g/ha (chickweed; 62 g ai/ha): 70%
pest or weed control at 125 g/ha (chickweed; 125 g ai/ha): 85%
pest or weed control at 250 g/ha (chickweed; 250 g ai/ha): 90%
pest or weed control at 31 g/ha (wild buckwheat; 31 g ai/ha): 80%
pest or weed control at 62 g/ha (wild buckwheat; 62 g ai/ha): 95%
pest or weed control at 125 g/ha (wild buckwheat; 125 g ai/ha): 100%
pest or weed control at 250 g/ha (wild buckwheat; 250 g ai/ha): 100%
pest or weed control at 31 g/ha (pigweed; 31 g ai/ha): 80%
pest or weed control at 62 g/ha (pigweed; 62 g ai/ha): 85%
pest or weed control at 125 g/ha (pigweed; 125 g ai/ha): 85%
pest or weed control at 250 g/ha (pigweed; 250 g ai/ha): 95%
pest or weed control at 31 g/ha (field poppy; 31 g ai/ha): 60%
pest or weed control at 62 g/ha (field poppy; 62 g ai/ha): 75%
pest or weed control at 125 g/ha (field poppy; 125 g ai/ha): 80%
pest or weed control at 250 g/ha (field poppy; 250 g ai/ha): 100%
plant injury at 31 g/ha (winter wheat; 31 g ai/ha, scale 0 (no effect) to 100 (complete control), read-out: Plant response rating, Wheat, Winter): 0%
plant injury at 62 g/ha (winter wheat; 62 g ai/ha, scale 0-100, read-out: Plant response rating, Wheat, Winter): 0%
plant injury at 125 g/ha (winter wheat; 125 g ai/ha, scale 0-100, read-out: Plant response rating, Wheat, Winter): 25%
plant injury at 250 g/ha (winter wheat; 250 g ai/ha, scale 0-100, read-out: Plant response rating, Wheat, Winter): 35%
plant injury at 31 g/ha (spring wheat; 31 g ai/ha, scale 0 (no effect) to 100 (complete control), read-out: Plant response rating, Wheat, Spring): 0%
plant injury at 62 g/ha (spring wheat; 62 g ai/ha, scale 0-100, read-out: Plant response rating, Wheat, Spring): 0%
plant injury at 125 g/ha (spring wheat; 125 g ai/ha, scale 0-100, read-out: Plant response rating, Wheat, Spring): 0%
plant injury at 250 g/ha (spring wheat; 250 g ai/ha, scale 0-100, read-out: Plant response rating, Wheat, Spring): 30%
pest or weed control at 31 g/ha (windgrass; 31 g ai/ha): 15%
pest or weed control at 62 g/ha (windgrass; 62 g ai/ha): 20%
pest or weed control at 125 g/ha (windgrass; 125 g ai/ha): 25%
pest or weed control at 250 g/ha (windgrass; 250 g ai/ha): 40%
pest or weed control at 31 g/ha (bluegrass; 31 g ai/ha): 0%
pest or weed control at 62 g/ha (bluegrass; 62 g ai/ha): 0%
pest or weed control at 125 g/ha (bluegrass; 125 g ai/ha): 10%
pest or weed control at 250 g/ha (bluegrass; 250 g ai/ha): 60%
